Data: patent US20120202744A1, “DUAL ANTAGONISM OF ENDOTHELIN TYPE A AND BRADYKININ B1 RECEPTORS FOR TREATING PAIN AND PREVENTING CARTILAGE DEGRADATION” (priority 2011, published 2012)
Non-standard residues stand in square brackets, D forms with d. Residues, ends and D or L forms follow the SMILES beside them.

How the values were obtained:
[1] = test system: rat anterior cruciate ligament transection (ACLT) model of osteoarthritis; assay: Digital micro-X-ray (DX) OA radiological scoring of knee joints; assay type: in vivo; conditions: ACLT rats; for Mean radiological score: DX views, maximum possible score nine; for radiological indices of disease progression (DX) versus saline-treated controls: 0.0020≦P≦0.0214
Source text: (§1) At four or eight weeks post-surgery, animals were sacrificed by cardiac puncture under deep isoflurane anaesthesia. The right knee was dissected, and 40-mm-long samples were cut and stored in phosphate-buffered saline until scanned by digital micro-X-ray (DX) and/or micro-magnetic resonance (MR) imaging. Samples were dissected the same day as the radiological scans.
All knee samples were X-rayed using a Faxitron MX-20™ specimen X-ray system (Faxitron X-Ray Corporation, Lincolnshire, Ill.). Anteroposterior and lateral views were acquired at 5× magnification (10×10 μm pixel size) using a dose of 26 kV for 6 seconds. Images were analyzed using OsiriX™ software (version 3.7.1) [Rosset et al. OsiriX: an open-source software for navigating in multidimensional DICOM images. Journal of digital imaging (2004) 17(3): 205-16]. Radiological evidence of joint degradation, such as joint space narrowing and osteophyte formation, was evaluated. Radiological evidence of joint degradation was scored by two blinded examiners using an OA radiological score modified from Clark et al. [Clark R L, Cuttino JT Jr, Anderle S K, Cromartie W J, Schwab J H: Radiologic analysis of arthritis in rats after systemic injection of streptococcal cell walls. Arthritis Rheum 1979, 22:25-35.] and Esser et al. [Esser R E, Hildebrand A R, Angelo R A, Watts L M, Murphey M D, Baugh L E: Measurement of radiographic changes in adjuvant-induced arthritis in rats by quantitative image analysis. Arthritis Rheum 1995, 38:129-38.]. Bone demineralization, subchondral bone erosion, and heterotopic ossification were all scored on a scale from zero (normal) to three (marked degenerative changes). Total scores were calculated by summing the individual scores for each index, with a maximum possible score of nine.
OA radiological scores were statistically analyzed by one-way ANOVA, with total scores taken as the dependent variable and treatment group as the independent variable. Pairwise post-hoc testing with Holm correction was used to establish significance in between treatment groups. P-values less than 0.05 were considered statistically significant. Analyses were conducted using R (version 2.11.0) [R Development Core Team: R: A Language and Environment for Statistical Computing. Vienna, Austria: R Foundation for Statistical Computing 2010.].

[2] = test system: articular cartilage of ACLT rat knee; assay: Micro-magnetic resonance imaging of knee, cartilage mean T2; assay type: in vivo; conditions: ACLT rats, four weeks post-operatively; statistical significance between groups not achieved
Source text: as §1
A subset of animals were sacrificed four weeks post-operatively and their right knees were imaged by micro-MR. Imaging was performed using a Bruker PharmaScan™ (Ettlingen, Germany) 7 Tesla MR scanner at the McGill University Small Animal Imaging Lab (Montreal, QC). Knee samples were placed in a custom-made support inside a 15-mL centrifuge tube, which was then filled with the MR-inert buffer FC-770™ (3M Fluorinert™ Electronic Liquid). Samples were introduced into a 1H mouse brain radio frequency (RF) coil (inner diameter 22 mm), and centred in the magnet. The RF coil was tuned and matched to the sample, and the magnet was then shimmed. The system was controlled via Bruker ParaVision™ software (version 5.0). […]
After acquisition, images were analyzed using OsiriX software (version 3.7.1). […] As well, images were analyzed for signs of cartilage decay, indicated by lower signal intensity of the articular surfaces. […]

[3] = test system: rat anterior cruciate ligament transection (ACLT) model of osteoarthritis; assay: Cartilage and bone histomorphology (Safranin O/Fast Green) with OARSI histopathology scoring; assay type: in vivo; conditions: ACLT rats, eight weeks post-operatively, maximum value 24
Protocol: After radiological examination, knee samples were fixed in 10% neutral buffered formalin for two weeks, decalcified with RDO Rapid Decalcifier™ (Apex Engineering Products, Aurora, Ill.) for three days, circulated, and embedded in paraffin. Five-micron sagittal sections were acquired from the middle of the knee joint. Histomorphological staining was performed as previously described [Rosenberg L: Chemical basis for the histological use of safranin O in the study of articular cartilage. J Bone Joint Surg Am 1971, 53:69-82]: slides were deparrafinized, rehydrated, stained with Safranin O (which colours proteoglycans red) and Fast Green FCF (which colours collagens green), counterstained with hematoxylin, dehydrated, cleared, and mounted in Permount™. […]
Four slides from each condition were scored by two blinded examiners using the Osteoarthritis Research Society International (OARSI) histopathology assessment system [Pritzker K P H, Gay S, Jimenez S A, Ostergaard K, Pelletier J P, Revell P A, Salter D, van den Berg W B: Osteoarthritis cartilage histopathology: grading and staging. […]
OARSI scores were statistically analyzed by one-way ANOVA, with total scores taken as the dependent variable and treatment group as the independent variable. […]

bradykinin receptor B2 = bradykinin receptor B2 (Homo sapiens, UniProt P30411); conditions: patients with painful knee osteoarthritis, intra-articular; cited from earlier work
COX-2 = COX-2 immunohistochemistry on articular cartilage of surgically induced OA; assay type: in vivo, rat; conditions: surgery-induced OA rats
Source text: FIGS. 11A-11D are photomicrographs depicting the effect of BQ-123+R-954 dual inhibition. […] Tissues were obtained from surgery induced OA in a rat model Top panel represent COX-2 immunodetection on tissues from non-treated lesioned animals (FIG. 11A); BQ-123 treatment (FIG. 11B); R-954 treatment (FIG. 11C); BQ-123+R-954 dual treatment (FIG. 11D). Specific immune staining for COX-2 protein is observed as a darker color. Surgery, pharmacological treatment, and tissue collection and processing were performed as described in Kaufman et al., Arthritis Research and Therapy, 2011, 13:R76. FIG. 11E is a bar graph depicting the percentage of COX-2-positive chondrocytes in each of the conditions (mean of 5 slides counted per condition).
Method: 5-micron sections were processed for immunohistochemical detection of cyclooxygenase COX-2 as described above.

bradykinin receptor B2, sequence (P30411 whole entry): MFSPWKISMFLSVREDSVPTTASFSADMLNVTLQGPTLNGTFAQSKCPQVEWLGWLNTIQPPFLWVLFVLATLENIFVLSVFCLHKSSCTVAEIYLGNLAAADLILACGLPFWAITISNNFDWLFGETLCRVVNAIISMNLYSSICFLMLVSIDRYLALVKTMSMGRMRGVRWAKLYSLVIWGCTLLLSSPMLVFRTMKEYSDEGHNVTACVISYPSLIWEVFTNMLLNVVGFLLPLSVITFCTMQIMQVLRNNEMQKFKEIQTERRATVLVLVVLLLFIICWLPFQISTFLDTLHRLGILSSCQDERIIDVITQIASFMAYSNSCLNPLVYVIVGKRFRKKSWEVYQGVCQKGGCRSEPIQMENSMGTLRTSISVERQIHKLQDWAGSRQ

Row | Structure (SMILES) | Mean radiological score [1] | radiological indices of disease progression (DX) versus saline-treated controls [1] | Mean T2 value [2] | Mean OARSI score [3] | analgesia in knee OA (bradykinin receptor B2) | anti-inflammatory effect in knee OA (bradykinin receptor B2) | COX-2 staining on articular cartilage (COX-2)
1 | C=C(N)NCC[C@@H](CC(=O)[C@@H](CCCC)CC(C)=O)C(=O)N1[C@H]2CCCC[C@@]2(C)C[C@H]1C(=O)N1CCC[C@@H]1C(=O)CCC(=O)NC(C)(Cc1ccccc1)C(=O)NC(CO)C(=O)C[C@H](Cc1cccc2ccccc12)C(=C)CC(C(=O)O)[C@H](C)CC (some centres unmarked) [R-954] | 2.50 | significantly ameliorated radiological indices of disease progression | 64.38 ms | 4.25 | – | – | –
2 | NC(N)=NCCC[C@@H](N)C(=O)N[C@@H](CCCN=C(N)N)C(=O)N1CCC[C@H]1C(=O)N1C[C@H](O)C[C@H]1C(=O)NCC(=O)N[C@@H](Cc1cccs1)C(=O)N[C@@H](CO)C(=O)N1Cc2ccccc2C[C@@H]1C(=O)N1[C@H](C(=O)N[C@@H](CCCN=C(N)N)C(=O)O)C[C@@H]2CCCC[C@@H]21 [Icatibant] | – | – | – | – | provided local analgesia | no anti-inflammatory effect could be detected | –
3 | CC(C)C[C@@H]1NC(=O)[C@@H](C(C)C)NC(=O)[C@@H]2CCCN2C(=O)[C@@H](CC(=O)O)NC(=O)[C@@H](Cc2c[nH]c3ccccc23)NC1=O [BQ-123] (cyclo(L[dW][dD]P[dV])) | 2.83 | significantly ameliorated radiological indices of disease progression | 61.13 ms | 10.25 | – | – | diminished
